Source: publication PMC9944328 (Nature Communications, 2023)
Like-named read-outs stand apart in the source and are kept apart here.

System: SSTR2 mutants
Experiment: SSTRs Gi-mediated cAMP inhibition, GloSensor, HEK293, 5 μM forskolin, 15 min room temperature (SSTR2 mutants)
Type: cell-based, human
Set-up: Best-fit Bottom, cAMP inhibition / Best-fit Top, cAMP inhibition / Span, cAMP inhibition / Bottom (best-fit value) / Top (best-fit value) / Span (best-fit value) / Span (best-fit) / Bottom (best-fit) / Top (best-fit) / Best-fit Bottom / Best-fit Top / Best-fit Span / Top / Span: scale not given here
Description: The levels of the intracellular 3′, 5′-cyclic AMP (cAMP) were measured by the GloSensor cAMP assay (Promega) as described in the previous studies[28],[41] which has been widely used. The human full-length SSTRs and mutants were cloned into the pcDNA3.1+ vector with a HA signal sequence followed by a Flag tag at the N-terminus. HEK293 cells (ATCC, CRL-1573) were seeded into 6-well microplates at a density of 1.0 × 10^6 cells/well and cultured for 24 h at 37 °C with 5% CO2. Cells were then co-transfected with SSTR wild-type or mutants and GloSensor plasmids. After 24 h of transfection, the cells were dissociated with TrypLE™ Express Enzyme (1X) (Thermo Fisher Scientific) and collected by centrifugation at 500 × g for 5 min. Then the collected cells were suspended in Hank’s balanced salt solution [HBSS (Thermo Fisher Scientific)] supplemented with […] (YEASEN), and then the suspension cells were seeded into 96-well plates with 90 μl/well. After incubating at room temperature for 40 min, 5 μM forskolin and ligands diluted in HBSS were added to each well and the plates were incubated at room temperature for 15 min. […] were measured using the Synergy H1 microplate reader (BioTek) and the data presented are means of at least three independent experiments.

C[C@@H](O)[C@@H]1NC(=O)[C@H](CCCCN)NC(=O)[C@@H](Cc2c[nH]c3ccccc23)NC(=O)[C@H](Cc2ccccc2)NC(=O)[C@@H](NC(=O)[C@H](N)Cc2ccccc2)CSSC[C@@H](C(=O)N[C@H](CO)[C@@H](C)O)NC1=O [octreotide]
Best-fit Top, cAMP inhibition (SSTR2 I195A-1, run 1): 99.51 | LogEC50, cAMP inhibition (SSTR2 I195A-1, run 1): -8.167 | Span, cAMP inhibition (SSTR2 I195A-1, run 1): 98.37 | EC50 (SSTR2 I195A-1, run 1, read-out: EC50, cAMP inhibition): 6.8 nM | Best-fit Bottom, cAMP inhibition (SSTR2 I195A-2, run 2): -0.2331 | Best-fit Top, cAMP inhibition (SSTR2 I195A-2, run 2): 94.69 | LogEC50, cAMP inhibition (SSTR2 I195A-2, run 2): -8.189 | Span, cAMP inhibition (SSTR2 I195A-2, run 2): 94.92 | EC50 (SSTR2 I195A-2, run 2, read-out: EC50, cAMP inhibition): 6.47 nM | Best-fit Bottom, cAMP inhibition (SSTR2 I195A-3, run 3): 2.536 | Best-fit Top, cAMP inhibition (SSTR2 I195A-3, run 3): 107 | LogEC50, cAMP inhibition (SSTR2 I195A-3, run 3): -8.29 | Span, cAMP inhibition (SSTR2 I195A-3, run 3): 104.4 | EC50 (SSTR2 I195A-3, run 3, read-out: EC50, cAMP inhibition): 5.13 nM | Best-fit Bottom, cAMP inhibition (SSTR2 L99A-1, run 1): -0.05878 | Best-fit Top, cAMP inhibition (SSTR2 L99A-1, run 1): 83.27 | LogEC50, cAMP inhibition (SSTR2 L99A-1, run 1): -8.764 | Span, cAMP inhibition (SSTR2 L99A-1, run 1): 83.33 | EC50 (SSTR2 L99A-1, run 1, read-out: EC50, cAMP inhibition): 1.72 nM | Best-fit Bottom, cAMP inhibition (SSTR2 L99A-2, run 2): 3.887 | Best-fit Top, cAMP inhibition (SSTR2 L99A-2, run 2): 89.82 | LogEC50, cAMP inhibition (SSTR2 L99A-2, run 2): -8.724 | Span, cAMP inhibition (SSTR2 L99A-2, run 2): 85.94 | EC50 (SSTR2 L99A-2, run 2, read-out: EC50, cAMP inhibition): 1.89 nM | Best-fit Bottom, cAMP inhibition (SSTR2 L99A-3, run 3): 6.223 | Best-fit Top, cAMP inhibition (SSTR2 L99A-3, run 3): 104 | LogEC50, cAMP inhibition (SSTR2 L99A-3, run 3): -9.836 | Span, cAMP inhibition (SSTR2 L99A-3, run 3): 97.82 | EC50 (SSTR2 L99A-3, run 3, read-out: EC50, cAMP inhibition): 0.146 nM | Best-fit Bottom, cAMP inhibition (SSTR2 Q102A-1, run 1): 2.423 | Best-fit Top, cAMP inhibition (SSTR2 Q102A-1, run 1): 108.7 | LogEC50, cAMP inhibition (SSTR2 Q102A-1, run 1): -7.926 | Span, cAMP inhibition (SSTR2 Q102A-1, run 1): 106.2 | EC50 (SSTR2 Q102A-1, run 1, read-out: EC50, cAMP inhibition): 11.9 nM | Best-fit Bottom, cAMP inhibition (SSTR2 Q102A-2, run 2): 0.4721 | Best-fit Top, cAMP inhibition (SSTR2 Q102A-2, run 2): 108.9 | LogEC50, cAMP inhibition (SSTR2 Q102A-2, run 2): -7.92 | Span, cAMP inhibition (SSTR2 Q102A-2, run 2): 108.4 | EC50 (SSTR2 Q102A-2, run 2, read-out: EC50, cAMP inhibition): 12 nM | Best-fit Bottom, cAMP inhibition (SSTR2 Q102A-3, run 3): 3.028 | Best-fit Top, cAMP inhibition (SSTR2 Q102A-3, run 3): 105.6 | LogEC50, cAMP inhibition (SSTR2 Q102A-3, run 3): -7.863 | Span, cAMP inhibition (SSTR2 Q102A-3, run 3): 102.6 | EC50 (SSTR2 Q102A-3, run 3, read-out: EC50, cAMP inhibition): 13.7 nM | Best-fit Top, cAMP inhibition (SSTR2 T194A-1, run 1): 84.79 | LogEC50, cAMP inhibition (SSTR2 T194A-1, run 1): -7.026 | Span, cAMP inhibition (SSTR2 T194A-1, run 1): 77.01 | EC50 (SSTR2 T194A-1, run 1, read-out: EC50, cAMP inhibition): 94.2 nM | Best-fit Top, cAMP inhibition (SSTR2 T194A-2, run 2): 94.26 | LogEC50, cAMP inhibition (SSTR2 T194A-2, run 2): -7.558 | Span, cAMP inhibition (SSTR2 T194A-2, run 2): 87.81 | EC50 (SSTR2 T194A-2, run 2, read-out: EC50, cAMP inhibition): 27.7 nM | Best-fit Top, cAMP inhibition (SSTR2 T194A-3, run 3): 95.49 | LogEC50, cAMP inhibition (SSTR2 T194A-3, run 3): -7.626 | Span, cAMP inhibition (SSTR2 T194A-3, run 3): 91.25 | EC50 (SSTR2 T194A-3, run 3, read-out: EC50, cAMP inhibition): 23.7 nM | Best-fit Bottom, cAMP inhibition (SSTR2 V103A-1, run 1): 3.112 | Best-fit Top, cAMP inhibition (SSTR2 V103A-1, run 1): 97.5 | LogEC50, cAMP inhibition (SSTR2 V103A-1, run 1): -8.546 | Span, cAMP inhibition (SSTR2 V103A-1, run 1): 94.39 | EC50 (SSTR2 V103A-1, run 1, read-out: EC50, cAMP inhibition): 2.85 nM | Best-fit Bottom, cAMP inhibition (SSTR2 V103A-2, run 2): -14.84 | Best-fit Top, cAMP inhibition (SSTR2 V103A-2, run 2): 85.83 | LogEC50, cAMP inhibition (SSTR2 V103A-2, run 2): -8.054 | Span, cAMP inhibition (SSTR2 V103A-2, run 2): 100.7 | EC50 (SSTR2 V103A-2, run 2, read-out: EC50, cAMP inhibition): 8.84 nM | Best-fit Bottom, cAMP inhibition (SSTR2 V103A-3, run 3): -3.777 | Best-fit Top, cAMP inhibition (SSTR2 V103A-3, run 3): 89.06 | LogEC50, cAMP inhibition (SSTR2 V103A-3, run 3): -7.947 | Span, cAMP inhibition (SSTR2 V103A-3, run 3): 92.84 | EC50 (SSTR2 V103A-3, run 3, read-out: EC50, cAMP inhibition): 11.3 nM | Best-fit Bottom, cAMP inhibition (SSTR2 Y50A-1, run 1): 9.945 | Best-fit Top, cAMP inhibition (SSTR2 Y50A-1, run 1): 106.2 | LogEC50, cAMP inhibition (SSTR2 Y50A-1, run 1): -9.897 | Span, cAMP inhibition (SSTR2 Y50A-1, run 1): 96.25 | Best-fit Bottom, cAMP inhibition (SSTR2 Y50A-2, run 2): -3.529 | Best-fit Top, cAMP inhibition (SSTR2 Y50A-2, run 2): 103.6 | LogEC50, cAMP inhibition (SSTR2 Y50A-2, run 2): -10.54 | Span, cAMP inhibition (SSTR2 Y50A-2, run 2): 107.2 | EC50 (SSTR2 Y50A-2, run 2, read-out: EC50, cAMP inhibition): 0.0288 nM | Best-fit Bottom, cAMP inhibition (SSTR2 Y50A-3, run 3): 9.945 | Best-fit Top, cAMP inhibition (SSTR2 Y50A-3, run 3): 106.2 | LogEC50, cAMP inhibition (SSTR2 Y50A-3, run 3): -9.897 | Span, cAMP inhibition (SSTR2 Y50A-3, run 3): 96.25 | EC50 (SSTR2 Y50A-3, run 3, read-out: EC50, cAMP inhibition): 0.127 nM | Emax (Suppl. Tables 4/5, SSTR2 T194(45.51)H, n=3): 88.27±7.62 %WT SSTR2 | Emax (Suppl. Tables 4/5, SSTR2 V103(2.64)N, n=3): 94.00±3.65 %WT SSTR2 | EC50 (Suppl. Tables 4/5, SSTR2 V103(2.64)N, n=3, read-out: EC50): 0.23 nM | Receptor activation of mutant (T194(45.51)H in SSTR2): significantly reduced receptor activation | Bottom (best-fit value) (T194A-1, run 1): 7.78 | Bottom (best-fit value) (T194A-2, run 2): 6.447 | Bottom (best-fit value) (T194A-3, run 3): 4.244 | Bottom (best-fit value) (T287A-1, run 1): 2.841 | LogEC50 (best-fit value) (T287A-1, run 1): -9.206 | Span (best-fit value) (T287A-1, run 1): 86.99 | Top (best-fit value) (T287A-1, run 1): 89.83 | EC50 (T287A-1, run 1, read-out: EC50 (best-fit value)): 0.623 nM | Bottom (best-fit value) (T287A-2, run 2): -10.83 | LogEC50 (best-fit value) (T287A-2, run 2): -9.285 | Span (best-fit value) (T287A-2, run 2): 118.8 | Top (best-fit value) (T287A-2, run 2): 108 | EC50 (T287A-2, run 2, read-out: EC50 (best-fit value)): 0.519 nM | Bottom (best-fit value) (T287A-3, run 3): 2.734 | LogEC50 (best-fit value) (T287A-3, run 3): -9.182 | Span (best-fit value) (T287A-3, run 3): 94.95 | Top (best-fit value) (T287A-3, run 3): 97.68 | EC50 (T287A-3, run 3, read-out: EC50 (best-fit value)): 0.658 nM | EC50 of mutant versus wild-type (V103(2.64)N mutant of SSTR2): retained a similar EC50 as wild-type receptor | Bottom (best-fit value) (W188A-1, run 1): -1.717 | LogEC50 (best-fit value) (W188A-1, run 1): -9.896 | Span (best-fit value) (W188A-1, run 1): 106.4 | Top (best-fit value) (W188A-1, run 1): 104.7 | EC50 (W188A-1, run 1, read-out: EC50 (best-fit value)): 0.127 nM | Bottom (best-fit value) (W188A-2, run 2): 1.331 | LogEC50 (best-fit value) (W188A-2, run 2): -10.14 | Span (best-fit value) (W188A-2, run 2): 108.6
